In brackets after ≈: the same amount, converted by molar mass. Activity calls are given as the source filed them. No cut-off for these calls is given here.
Key:
[1] = test system: Candida albicans; experiment: Antifungal activity against Candida albicans; format: functional
[2] = test system: Botrytis cinerea; experiment: Induction of morphological changes in Botrytis cinerea assessed as tangled mycelia at 0.5 ug/ml incubated for 6 days by SEM analysis; format: functional, organism-based; conditions: dose 0.5 µg/ml, time 6.0 day
[3] = test system: Sclerotinia sclerotiorum; experiment: Fungicidal activity against Sclerotinia sclerotiorum assessed as fungal inhibitory rate at 16 ug/ml relative to control; format: functional
[4] = test system: Penicillium digitatum; experiment: Fungicidal activity against Penicillium digitatum assessed as fungal inhibitory rate at 16 ug/ml relative to control; format: functional
[5] = test system: Botrytis cinerea; experiment: Induction of morphological changes in Botrytis cinerea assessed as uneven mycelia at 0.5 ug/ml incubated for 6 days by SEM analysis; format: functional, organism-based; conditions: dose 0.5 µg/ml, time 6.0 day
[6] = test system: Botrytis cinerea; experiment: Induction of morphological changes in Botrytis cinerea assessed as crinkly mycelia at 0.5 ug/ml incubated for 6 days by SEM analysis; format: functional, organism-based; conditions: dose 0.5 µg/ml, time 6.0 day
[7] = test system: Fusarium oxysporum; experiment: Fungicidal activity against Fusarium oxysporum assessed as fungal inhibitory rate at 16 ug/ml relative to control; format: functional
[8] = test system: Botrytis cinerea; experiment: Induction of morphological changes in Botrytis cinerea assessed as thin cell membrane at 0.5 ug/ml incubated for 6 days by TEM analysis; format: functional, organism-based; conditions: dose 0.5 µg/ml, time 6.0 day
[9] = test system: Colletotrichum lagenaria; experiment: Fungicidal activity against Colletotrichum lagenarium assessed as fungal inhibitory rate at 16 ug/ml relative to control; format: functional
[10] = test system: Botrytis cinerea; experiment: Fungicidal activity against Botrytis cinerea assessed as fungal inhibitory rate at 16 ug/ml relative to control; format: functional
[11] = test system: Botrytis cinerea; experiment: Fungicidal activity against Botrytis cinerea assessed as fungal growth reduction; format: functional, organism-based
[12] = test system: Botrytis cinerea; experiment: Inhibition of Botrytis cinerea CYP51 by fluorescent quenching analysis; conditions: dose <= 16.0 µg/ml
[13] = test system: Botrytis cinerea; experiment: Induction of morphological changes in Botrytis cinerea assessed as thin cell wall at 0.5 ug/ml incubated for 6 days by TEM analysis; format: functional, organism-based; conditions: dose 0.5 µg/ml, time 6.0 day
[14] = Inhibition of Botrytis cinerea CYP51 by ELISA
[15] = test system: Botrytis cinerea; experiment: Induction of morphological changes in Botrytis cinerea assessed as cracked cell structure at 0.5 ug/ml incubated for 6 days by TEM analysis; format: functional, organism-based; conditions: dose 0.5 µg/ml, time 6.0 day
[16] = test system: Botrytis cinerea; experiment: Induction of morphological changes in Botrytis cinerea assessed as irregular mycelia at 0.5 ug/ml incubated for 6 days by SEM analysis; format: functional, organism-based; conditions: dose 0.5 µg/ml, time 6.0 day
[17] = test system: Alternaria alternata; experiment: Antifungal activity against Alternaria alternata assessed as fungal inhibition rate at 100 ug/ml relative to control; format: functional
[18] = test system: Alternaria solani; experiment: Antifungal activity against Alternaria solani assessed as fungal inhibition rate at 100 ug/ml relative to control; format: functional
[19] = test system: Aspergillus niger; experiment: Antifungal activity against Aspergillus niger; format: functional
[20] = test system: Aspergillus flavus; experiment: Antifungal activity against Aspergillus flavus; format: functional

COc1ccc(NC(=O)c2cc3c(CO)cnc(C)c3o/c2=N\c2ccc(Cl)c(C)c2)cc1
MIC [1]: 12.5 µg/mL (≈ 26.9 µM)

COC(=O)C1=C(N)OC2=C(CN(C(=O)c3ccco3)C/C2=C\c2ccc(Br)o2)C1c1ccc(Br)o1 (stereo not drawn)
Activity [2]: Active
inhibition at 16 µg/mL [3]: 82.7%
inhibition at 16 µg/mL [4]: 76%
Activity [5]: Active
Activity [6]: Active
inhibition at 16 µg/mL [7]: 83.5%
Activity [8]: Active
inhibition at 16 µg/mL [9]: 84.9%
inhibition at 16 µg/mL [10]: 100%
EC50 [11]: 0.53 µg/mL (≈ 0.874 µM)
inhibition [12]: Dose-Dependent Effect
Activity [13]: Active
IC50 [14]: 0.611 µg/mL (≈ 1.01 µM)
Activity [15]: Active
Activity [16]: Active

CCOC(=O)c1c(C)nc2c(c1C)c(=O)oc1c(OC(=O)C(Br)CC)cccc12 (stereo not drawn)
inhibition at 100 µg/mL [17]: 62.1%
inhibition at 100 µg/mL [18]: 54.6%

CC1(C)CC(=O)C2=C(C1)OC(N)=C(C#N)C2c1ccco1 (stereo not drawn)
MIC [1]: 12.5 µg/mL (≈ 44 µM)
MIC [19]: 12.5 µg/mL (≈ 44 µM)

CCCC(Br)C(=O)Oc1ccc2c(c1)oc(=O)c1c(C)c(C(=O)OCC)c(C)nc12 (stereo not drawn)
inhibition at 100 µg/mL [17]: 44.6%
inhibition at 100 µg/mL [18]: 40.7%

Fc1ccc([C@@]2(Cn3cncn3)O[C@@H]2c2ccccc2Cl)cc1
Activity [2]: Active
inhibition at 16 µg/mL [3]: 100%
inhibition at 16 µg/mL [4]: 78.6%
Activity [5]: Active
Activity [6]: Active
inhibition at 16 µg/mL [7]: 87.3%
Activity [8]: Active
inhibition at 16 µg/mL [9]: 94.3%
inhibition at 16 µg/mL [10]: 100%
EC50 [11]: 0.67 µg/mL (≈ 2.03 µM)
inhibition [12]: Dose-Dependent Effect
Activity [13]: Active
IC50 [14]: 0.802 µg/mL (≈ 2.43 µM)
Activity [15]: Active
Activity [16]: Active

Cc1cc(C)c2c(=O)oc3cc(OC(=O)C(C)Br)ccc3c2n1 (stereo not drawn)
inhibition at 100 µg/mL [17]: 41.6%
inhibition at 100 µg/mL [18]: 52.4%

CC1(C)CC(=O)C2=C(C1)OC(N)=C(C#N)C2c1ccc(F)cc1 (stereo not drawn)
MIC [19]: 12.5 µg/mL (≈ 40 µM)
MIC [20]: 12.5 µg/mL (≈ 40 µM)

COC(=O)C1=C(C)OC(N)=C(C#N)C1c1ccc(F)cc1 (stereo not drawn)
MIC [1]: 12.5 µg/mL (≈ 43.4 µM)
MIC [20]: 12.5 µg/mL (≈ 43.4 µM)

— ChEMBL document CHEMBL5506031, “Design, Synthesis, Bioactive Evaluation, and Molecular Dynamics Simulation of Novel 4H-Pyrano[3,2-c]pyridine Analogues as Potential Sterol 14α-Demethylase (CYP51) Inhibitors” (J Med Chem, 2024)
